Measured values from paper PMC10020666, “Oxidation modulates LINGO2-induced inactivation of large conductance, Ca^2+-activated potassium channels” (The Journal of Biological Chemistry, 2023).
“Also recorded” adds a separate entry of the source.

Legend:
BKα currents = assay: Effect of Ch-T on BKα currents in absence of LINGO2 (inside-out patch); type: cell-based, rabbit
Method: (§1) All excised patch experiments were performed at 37 °C in 140 mM symmetrical K^+ solutions which contained 140 mM KCl, 10 mM glucose, 10 mM Hepes, and either 1 mM ethylene glycol-bis(β-amino ether)-N,N,N′,N′-tetraacetic acid (EGTA (for free [Ca^2+] 100 nM to 300 nM) or 1 mM hydroxyethylethylenediaminetriacetic acid (HEDTA for free [Ca^2+] 1 μM to 10 μM) and the pH of all solutions was adjusted to 7.2 with KOH. These solutions were made with double-distilled, deionized, filtered water from a MilliQ water purification system. The pipette solution contained 100 nM free Ca^2+. We used “Chelator” (https://www.ru.nl/animal/research/chelator/) to calculate the total amount of Ca^2+ required, as per Schoenmakers et al., ([40]) and free Ca^2+ concentrations were checked with a Ca^2+ sensitive electrode.
During experiments, the dish containing HEK cells was superfused with Hanks solution, which contained (in mM) 129.8 Na^+, 5.8 K^+, 135 Cl^-, 4.17 HCO3^-, 0.34 HPO4^2-, 0.44 H2PO4^-, 1.8 Ca^2+, 0.9 Mg^2+, 0.4 SO4^2-, 10 glucose, 2.9 sucrose, and 10 Hepes, and its pH was adjusted to 7.4 with NaOH. […]
(§2) All data is presented as mean ± SD and was analyzed with Prism software (GraphPad). […] Statistical differences were assessed using either paired or unpaired nonparametric tests (Wilcoxin signed-rank test, Mann–Whitney test), or the extra sum of squares F-test, as appropriate. […]

BK:LINGO2 channels [1] = assay: Effect of oxidizing/reducing agents on BK:LINGO2 currents (inside-out patch, step to +160 mV); type: cell-based, rabbit BKα, human LINGO2; details: 200 μM Ch-T, 100 nM Ca2+
Method: as §1
(§3) During experiments, the dish containing HEK cells was superfused with Hanks solution, which contained (in mM) 129.8 Na^+, 5.8 K^+, 135 Cl^-, 4.17 HCO3^-, 0.34 HPO4^2-, 0.44 H2PO4^-, 1.8 Ca^2+, 0.9 Mg^2+, 0.4 SO4^2-, 10 glucose, 2.9 sucrose, and 10 Hepes, and its pH was adjusted to 7.4 with NaOH. In addition, the patch under study was continuously superfused by means of a close delivery system consisting of a pipette (tip diameter 200 μm) placed approximately 300 μm away from the cell. This could be switched, with a dead-space time of around 5 s, to a solution containing a drug.
(§4) Electrodes were pulled from Corning borosilicate glass (1.5 mm O.D. × 0.86 mm I.D.) using a Sutter P-97 pipette puller and fire polished using a Narashige MF 83 microforge. Pipettes had resistances of 2 to 5 MΩ when filled with recording solutions and series resistance was compensated by up to 80%. Standard single-channel patch clamp recording methods were used. Voltage clamp commands were delivered via an Axopatch 200B patch clamp amplifier (Axon Instruments) connected to a Digidata 1322A AD/DA converter (Axon Instruments) interfaced to computers running pClamp software (Axon Instruments). Data was acquired at 100 KHz and filtered at 2 KHz or 5 KHz. Patches were held at either −60 mV or −100 mV and depolarized in 20 mV increments to 200 mV. Residual capacitance and leakage currents were subtracted using either a P/4 protocol or offline by manual leak subtraction.
(§5) The human LINGO2 transcript used [NM_001354575.2] was untagged in a pcDNA 3.1 vector (VectorBuilder). The α subunit of the rabbit BK channel was isolated from rabbit urethral smooth muscle and cloned using the pcDNA TOPO DNA cloning kit (Life Technologies). The identifiesd transcript corresponded to the ZERO variant of mouse BKα and to variant 2 (NM_002247.3) of human BKα. We used 100 ng ml^−1 cDNA for BKα only transfections, whereas a 100:500 ng ml^−1 cDNA ratio was used for BKα:LINGO2 and BKα:LINGO1 cotransfections for inside-out patch recordings. GFP (150 ng ml^−1) was included in all transfections except those used for Figure 2, C and D. cDNA was transiently transfected into HEK cells using lipofectamine. Site-directed mutagenesis used the Phusion kit (Thermo Fisher Scientific) method ([41]) and all mutations were confirmed by sequencing.
HEK293 cells were cultured in Dulbecco's modified Eagle's medium + MEM media containing 10% fetal bovine serum and 1% Penicillin-Streptomycin antibiotics at 37 °C, and 95% humidifying incubator containing 5% CO2. Subculturing was done by 0.05% Trypsin-EDTA solution.
All data is presented as mean ± SD and was analyzed with Prism software (GraphPad). Individual data points are also shown in bar charts. Statistical differences were assessed using either paired or unpaired nonparametric tests (Wilcoxin signed-rank test, Mann–Whitney test), or the extra sum of squares F-test, as appropriate. Comparisons of three or more nonparametric data sets used Friedman’s test followed by Dunn’s test for multiple comparisons, whereas ANOVA was used for three or more parametric data sets. p < 0.05 was taken as significant.

BK:LINGO2 channels [2] = assay: Effect of Ch-T on BK:LINGO2 currents at different voltages (GV curves); type: cell-based, rabbit BKα, human LINGO2
Method: as §1, §3, §4
as §5, with “sequencing. […]” for “sequencing.”
G was derived from peak currents according to Ohm’s law[1] […] Summary data was expressed as the […]. […] For BK constructs, data from each patch was normalized to the peak conductance measured in either 1 μM or 10 μM Ca^2+ to obtain Gmax, and curves were constrained to the Gmax value obtained in this. […]

BK:LINGO2 M605L mutant = assay: Effect of Ch-T on BK:LINGO2 M605L currents (inside-out patch); type: cell-based, rabbit BKα, human LINGO2
Method: as §1, §3, §4
The human LINGO2 transcript used [NM_001354575.2] was untagged in a pcDNA 3.1 vector (VectorBuilder). The α subunit of the rabbit BK channel was isolated from rabbit urethral smooth muscle and cloned using the pcDNA TOPO DNA cloning kit (Life Technologies). […]
as §2

BK:LINGO2 M603L mutant = assay: Effect of Ch-T on BK:LINGO2 M603L currents (inside-out patch); type: cell-based, rabbit BKα, human LINGO2
Method: as §1, §3
Electrodes were pulled from Corning borosilicate glass (1.5 mm O.D. × 0.86 mm I.D.) using a Sutter P-97 pipette puller and fire polished using a Narashige MF 83 microforge. Pipettes had resistances of 2 to 5 MΩ when filled with recording solutions and series resistance was compensated by up to 80%. Standard single-channel patch clamp recording methods were used. […]
as §2

BKα:LINGO2 = assay: Effect of Ch-T on steady-state voltage-dependent inactivation (double pulse protocol); type: cell-based, rabbit BKα, human LINGO2; details: 200 μM Chloramine-T, 2 min, 100 nM Ca2+, control inactivation V1/2 36±5 mV, n = 6
Method: All excised patch experiments were performed at 37 °C in 140 mM symmetrical K^+ solutions which contained 140 mM KCl, 10 mM glucose, 10 mM Hepes, and either 1 mM ethylene glycol-bis(β-amino ether)-N,N,N′,N′-tetraacetic acid (EGTA (for free [Ca^2+] 100 nM to 300 nM) or 1 mM hydroxyethylethylenediaminetriacetic acid (HEDTA for free [Ca^2+] 1 μM to 10 μM) and the pH of all solutions was adjusted to 7.2 with KOH. These solutions were made with double-distilled, deionized, filtered water from a MilliQ water purification system. The pipette solution contained 100 nM free Ca^2+. We used “Chelator” (https://www.ru.nl/animal/research/chelator/) to calculate the total amount of Ca^2+ required, as per Schoenmakers et al., ([40]) and free Ca^2+ concentrations were checked with a Ca^2+ sensitive electrode. […]
Inactivation curves were fitted with a similar Boltzmann function:[3] I/Imax=1/{1+exp[±(V1/2−Vc)/K]} where, I was the current recorded at the test step, Imax was the maximal current recorded, Vc was the conditioning potential (see RESULTS), and K was the slope factor.
as §2

## Cc1ccc(S(=O)(=O)NCl)cc1 [Ch-T, Chloramine T]
BKα currents; 200 μM Ch-T, up to 210 s, +160 mV, 100 nM Ca2+, n = 4-5, p = 0.43 (not significant)
  Increase of BKα current amplitude: 21 ± 27%
BKα currents; Ch-T, 4-min application, n = 4 to 5, p = 0.43
  Effect on BKα current amplitude: failed to significantly increase the BKα current amplitude
BK:LINGO2 channels [1]
  Effect on BK:LINGO2 inactivation: caused rapid abolition of inactivation; also recorded: maintained for the duration of the recording, despite the removal of the oxidizing agent; also recorded: completely abolished inactivation and also increased peak current amplitude; also recorded: inactivation was clearly abolished
BK:LINGO2 channels [1]; listed as chloramine-T
  Effect on BK:LINGO2 inactivation: abolished inactivation
BK:LINGO2 channels [1]; 60 s, last 5 ms, control 11 ± 8%, n = 7, p < 0.05, mean ± SD
  Sustained current amplitude, % of peak current, after 60 s Ch-T: 59 ± 39%
BK:LINGO2 channels [1]; 120 s, last 5 ms, control 11 ± 8%, n = 7, p < 0.05, mean ± SD
  Sustained current amplitude, % of peak current, after 120 s Ch-T: 130 ± 19%
BK:LINGO2 channels [1]; 120 s, p < 0.05, n = 7, mean ± SD
  Increase of peak current amplitude compared to control: 35 ± 31%
BK:LINGO2 channels [2]; 100 nM Ca2+, -100 to +200 mV
  Inactivation after Ch-T, family of voltages: inactivation was practically abolished; also recorded: increased current amplitude and practically abolished inactivation
BK:LINGO2 channels [2]; 100 nM Ca2+, Ch-T 2 min, before Ch-T 128 ± 3 mV, n = 7, Boltzmann fit
  Half maximal activation voltage V1/2 after Ch-T: 86 ± 11 mV
BK:LINGO2 channels [2]; 10 μM Ca2+, 200 μM Ch-T, -100 to +200 mV
  Inactivation and current amplitude after Ch-T, family of voltages: the current amplitude was increased at all voltages recorded, and inactivation was practically abolished
BK:LINGO2 channels [2]; 10 μM Ca2+, -60 mV, 200 μM Ch-T, before 0.06 ± 0.02, n = 6, p < 0.05
  G/Gmax at -60 mV in Ch-T: 0.48 ± 0.27
BK:LINGO2 channels [2]; Ch-T in 10 μM Ca2+
  Open probability of BK:LINGO2 channels / conductance: large increases in G across the voltage range; also recorded: increased the G/Gmax at all voltages; also recorded: significantly increased the open probability of BK:LINGO2 channels
BK:LINGO2 M605L mutant; M605L vs WT, p < 0.001, Mann-Whitney test
  Ch-T effectiveness reduction compared to WT BK:LINGO2 currents: ~50 % less effective
BK:LINGO2 M605L mutant; M605L, 200 μM Ch-T, 60 s + additional 90 s, 100 nM Ca2+, +160 mV, control 6 ± 4%, p < 0.01
  Sustained current, % of peak current amplitude, after an additional 90 s Ch-T: 47 ± 25%
BK:LINGO2 M605L mutant; M605L, 200 μM Ch-T, 60 s, 100 nM Ca2+, +160 mV, control 6 ± 4%, n = 10, p < 0.01
  Sustained current, % of peak current amplitude, after 60 s Ch-T: 15 ± 14%
BK:LINGO2 M605L mutant; M605L, 200 μM Ch-T, 210 s, 100 nM Ca2+, +160 mV
  Sustained current, % of peak current amplitude, at end of 210 s application: ~50%
BK:LINGO2 M603L mutant; 200 μM Ch-T, 60 s, 100 nM Ca2+, +160 mV, control 10 ± 9%, n = 9, p < 0.05
  Sustained current after 60 s Ch-T: 17 ± 9%
BK:LINGO2 M603L mutant; 200 μM Ch-T, 150 s, 100 nM Ca2+, +160 mV, control 10 ± 9%, n = 9, p < 0.05
  Sustained current after 150 s Ch-T: 20 ± 12%
BK:LINGO2 M603L mutant; Ch-T, 7 to 9 patches
  Sustained current during Ch-T (summary in figure legend): ~20%
BKα:LINGO2
  Steady-state voltage-dependent inactivation after Ch-T: no time- or voltage-dependent inactivation was observed
BKα:LINGO2; listed as Chloramine-T
  Steady-state voltage-dependent inactivation after Ch-T: compl etel y abol i shed
